Data published in patent US11992297B2, “Monitoring method of heart rate for toxicity test using high-speed digital holography” (KOREA RESEARCH INSTITUTE OF STANDARDS AND SCIENCE, priority 2020, dated 2024).
Like-named read-outs stand apart in the source and are kept apart here.

Tests used:
water flea [1] = settings: for change of heart rate (final RHR) relative to the original heart rate (OHR) / decrease of heart rate (final RHR) relative to the original heart rate (OHR): FIG. 7 (C); for decrease of heart rate (final RHR) relative to the original heart rate (OHR): normalized for initial RHR; for relaxation heart rate (RHR) 0 hr / relaxation heart rate (RHR) 24 hr: average ± SD; for RHR normalization relative to 0 hr: 24 hr relative to 0 hr; for heart rate decrease after 24 hours (normalized average RHR): FIG. 8 (B),(C)
Procedure: In the individual response evaluation apparatus, an extra-axial digital holography method was used to take a hologram of the water flea with a CCD camera.
The heart rate of the water flea was analyzed by the reconstructed time-resolved phase distributions, from the heart rate signal obtained by the method.
A Fourier spectrum method was used for evaluating periodic characteristics in heart rate analysis. In (C) of FIG. 5, a one-dimensional Fourier spectrum method was used for each pixel of 1000 frame sets to calculate a two-dimensional frequency distribution of the water flea.
2 hours after the observation, 19 mL of hydrogen peroxide having concentrations of 0.00 mM, 0.03 mM, and 0.06 mM, respectively was each mixed for each experiment to perform the experiment repeatedly so that the water flea is exposed to the hydrogen peroxide. At this time, in a negative control group of 0.00 mM treatment, 10 mL of an M4 medium was further mixed for unifying volume.
Upon observation, the heart rate analysis was performed by dividing the section into those before and after exposure to hydrogen peroxide.
In order to express the heart rate trend of (B) of FIG. 7, in (A) of FIG. 7, an original heart rate (OHR) was flattened every 30 minutes by a moving average method.

water flea [2] = settings: 0.06 mM-treated test group versus 0.03 mM-treated group; FIG. 8 (d)
[3] = 0.03 mM hydrogen peroxide, Group (N=3)
[4] = 0.03 mM hydrogen peroxide, specimen #4
[5] = 0.03 mM hydrogen peroxide, specimen #5
[6] = 0.03 mM hydrogen peroxide, specimen #6
[7] = 0.06 mM hydrogen peroxide, Group (N=3)
[8] = 0.06 mM hydrogen peroxide, specimen #7
[9] = 0.06 mM hydrogen peroxide, specimen #8
[10] = 0.06 mM hydrogen peroxide, specimen #9

SMILES: OO [hydrogen peroxide]
- change of heart rate (final RHR) relative to the original heart rate (OHR) (water flea [1]; 0.03 mM hydrogen peroxide): −13 BPM
- decrease of heart rate (final RHR) relative to the original heart rate (OHR) (water flea [1]; 0.03 mM hydrogen peroxide): 3.3%
- relaxation heart rate (RHR) 0 hr (water flea [1]; [3]): 366.81 ± 20.43 BPM
- RHR normalization relative to 0 hr (water flea [1]; [3]): 92.84 ± 5.60%
- relaxation heart rate (RHR) 24 hr (water flea [1]; [3]): 340.33 ± 21.98 BPM
- relaxation heart rate (RHR) 0 hr (water flea [1]; [4]): 363.22 ± 12.11 BPM
- RHR normalization relative to 0 hr (water flea [1]; [4]): 90.42 ± 4.74%
- relaxation heart rate (RHR) 24 hr (water flea [1]; [4]): 328.43 ± 18.01 BPM
- relaxation heart rate (RHR) 0 hr (water flea [1]; [5]): 350.78 ± 20.23 BPM
- RHR normalization relative to 0 hr (water flea [1]; [5]): 96.72 ± 1.78%
- relaxation heart rate (RHR) 24 hr (water flea [1]; [5]): 339.28 ± 6.54 BPM
- relaxation heart rate (RHR) 0 hr (water flea [1]; [6]): 486.43 ± 6.63 BPM
- RHR normalization relative to 0 hr (water flea [1]; [6]): 91.42 ± 6.94%
- relaxation heart rate (RHR) 24 hr (water flea [1]; [6]): 353.28 ± 27.98 BPM
- heart rate decrease after 24 hours (normalized average RHR) (water flea [1]; 0.03 mM-treated test group): 7.16%
- change of heart rate (final RHR) relative to the original heart rate (OHR) (water flea [1]; 0.06 mM hydrogen peroxide): −109 BPM
- decrease of heart rate (final RHR) relative to the original heart rate (OHR) (water flea [1]; 0.06 mM hydrogen peroxide): 22.7%
- relaxation heart rate (RHR) 0 hr (water flea [1]; [7]): 383.81 ± 12.99 BPM
- RHR normalization relative to 0 hr (water flea [1]; [7]): 73.96 ± 5.61%
- relaxation heart rate (RHR) 24 hr (water flea [1]; [7]): 279.05 ± 12.71 BPM
- relaxation heart rate (RHR) 0 hr (water flea [1]; [8]): 370.07 ± 25.38 BPM
- RHR normalization relative to 0 hr (water flea [1]; [8]): 74.26 ± 4.33%
- relaxation heart rate (RHR) 24 hr (water flea [1]; [8]): 274.82 ± 16.01 BPM
- relaxation heart rate (RHR) 0 hr (water flea [1]; [9]): 378.43 ± 15.41 BPM
- RHR normalization relative to 0 hr (water flea [1]; [9]): 79.13 ± 3.88%
- relaxation heart rate (RHR) 24 hr (water flea [1]; [9]): 299.47 ± 14.70 BPM
- relaxation heart rate (RHR) 0 hr (water flea [1]; [10]): 383.90 ± 13.02 BPM
- RHR normalization relative to 0 hr (water flea [1]; [10]): 68.47 ± 1.93%
- relaxation heart rate (RHR) 24 hr (water flea [1]; [10]): 262.87 ± 7.41 BPM
- heart rate decrease after 24 hours (normalized average RHR) (water flea [1]; 0.06 mM-treated test group): 25.97%
- reactive oxygen species (ROS) level, times higher than the 0.03 mM-treated group (water flea [2]): 7.8 times
